Assay results reported in US7868015B2, “Phosphodiesesterase 4 inhibitors for the treatment of a cognitive deficit” (Cold Spring Harbor Laboratory, priority 2000, dated 2011).
“Also recorded” adds a separate entry of the source.

What was measured:
[1] = test system: CRE-luciferase reporter gene in human neuroblastoma cells; assay: CRE-luciferase reporter gene assay, forskolin-stimulated human neuroblastoma cells; assay type: cell-based; conditions: for effect on CRE-luciferase expression: FIG. 2, in words; for increase of forskolin-induced CRE-luciferase expression above forskolin alone: drug for two hours before suboptimal dose of forskolin, assayed 4 hours after forskolin stimulation (FIG. 2A)
Text: FIG. 2A is a bar graph representation depicting results showing that the PDE4 inhibitors rolipram and HT0712 enhance forskolin-induced gene expression in human neuroblastoma cells. Relative light units (RLU) emitted from luciferase were quantified in human neuroblastoma cells stably transfected with a CRE-luciferase reporter gene and exposed to vehicle alone or drug (HT0712 or rolipram) for two hours before stimulation by a suboptimal dose of forskolin.
A high-throughput drug screen was accomplished using human neuroblastoma cells, which were stably transfected with a luciferase reporter gene driven by a CRE (cAMP response element) promoter (a drug screen for enhancers of CREB function) (Scott, R. et al., J. Mol. Neurosci., 19:171-177 (2002)). Cells were exposed to drug for two hours and then stimulated with a suboptimal dose of forskolin for another four hours. […] Among the dozens of confirmed hits for several molecular targets identified from this screen, inhibitors of PDE4 were numerous.

[2] = test system: somatostatin, an endogenous cAMP-responsive gene, in human neuroblastoma cells; assay: Real-time PCR of somatostatin expression, forskolin-stimulated human neuroblastoma cells; assay type: cell-based; conditions: for effect on expression of CRE-dependent endogenous gene somatostatin: FIG. 2, in words; for increase in forskolin-induced expression of somatostatin: real-time PCR, ΔCt above vehicle alone (FIG. 2B)
Text: FIG. 2B is a bar graph representation depicting results showing that the PDE4 inhibitors rolipram and HT0712 enhance forskolin-induced gene expression in human neuroblastoma cells. Real-time PCR was used to quantify expression of somatostatin, an endogenous cAMP-responsive gene. Expression levels induced by forskolin or by forskolin+drug are quantified as differences in threshold cycle number (ΔCt) above vehicle alone control groups.

CBP^+/− mutant mice = assay: Object recognition task, long-term memory in CBP+/− mutant mice; assay type: in vivo; conditions: for 24 hour memory retention versus vehicle-alone group: 3.5 minute training (FIG. 6); for memory retention, drug-treated CBP+/− mutants versus drug-treated wildtype mice / 24 hour memory retention (Discrimination Index) versus vehicle-injected mutants: 0.1 mg/kg i.p. 20 minutes before 15 minute training, tested 24 hours later (FIG. 4); for 24 hour memory retention (Discrimination Index) versus vehicle-injected mutants: p<0.05
Text: (§1) Generation of CBP^+/- mice was described by Oike et al. (Human Molecular Genetics, 8:387-396 (1999)). […] For these studies, animals were generated by crossing CBP^+/- mice to C57BL/6 females (Jackson laboratory). The mice were genotyped with a PCR protocol as described previously (Oike, Y. et al., Human Molecular Genetics, 8:387-396 (1999)). Age-(12 to 14 weeks old by the time of handling) and gender-matched mutant mice and wildtype littermates were used for all experiments. Mice were handled for 3-5 minutes for 5 days. […] The first set was used for experiments summarized in FIGS. 3 and 4 (n=10 per genotype). The second set was used for the experiment summarized in FIG. 5 (wildtype mice, n=20). For each experiment, the same set of animals was used repeatedly with different (new) sets of objects for each repetition. […] (iii) each experimental condition was replicated 2-4 independent times, and replicate days were added to generate final number of subjects. Five-to-eight sessions were performed on each set of mice. Each mouse was trained and tested no more than once per week and with a one-week interval between testing. In experiments with drug-injections (see below), vehicle-injected mice and high/low-dose-injected mice, were counterbalanced. In each experiment, the experimenter was unaware (blind) to the treatment of the subjects during training and testing. […] Mice were presented with two objects, one of which was used during training, and thus was 'familiar' and the other of which was novel (e.g. a small pyramid-shape object). The test objects were divided into ten sets of two “training” plus on “testing” objects, and a new set of objects was used for each training session. After each experimental subject, the apparatus and the objects were cleaned with 90% ethanol, dried and ventilated for a few minutes. […] In addition, vehicle- and drug-injected mice were counterbalanced from experiment to experiment. Such design allowed at least two weeks wash-out time between repeated usages of high doses. […] The experiments were videotaped via an overhead video camera system. Types were reviewed by a blinded observer and the following behavioral parameters were determined: time of exploration of an each object; the total time of exploration of the objects; number of approaches to the objects; and time (latency) to first approach to an object. The discrimination index was determined as described previously (Ennaceur, A. & Aggleton, J. P., Behav. Brain Res., 88:181-193 (1997)). The data were analyzed by Student's unpaired t test using statistical software package ([…] Institute, Inc). All values in the text and figure legends are expressed as mean±SEM.

wildtype mice = assay: Object recognition task, long-term memory in wildtype mice; assay type: in vivo; conditions: for 24 hour memory retention versus vehicle-alone group: 3.5 minute training (FIG. 6)
Text: as §1

[3] = Half-life (wash-out consideration); conditions: mouse, in vivo
Description: HT0712 was administered intraperitoneally (i.p.) at doses: 0.001 mg/kg; 0.005 mg/kg; 0.01 mg/kg; 0.05 mg/kg; 0.1 mg/kg, 0.15 mg/kg and 0.2 mg/kg. Rolipram (Sigma) was administered i.p. at dose 0.1 mg/kg. Drug compounds were injected with one week interval to allow sufficient wash-out time (the half-life for HT0712 and Rolipram <3 hours). In addition, vehicle- and drug-injected mice were counterbalanced from experiment to experiment. Such design allowed at least two weeks wash-out time between repeated usages of high doses.

normal, young adult mice = conditions: delivered directly to the hippocampus, intraventricularly or intraperitoneally (Scott et al. 2002); cited from earlier work
aged rats = conditions: Barad et al. 1998; cited from earlier work
[4] = i.p., 3.5 minute training, 24-hour memory (FIG. 6)

COc1ccc([C@H]2CNC(=O)[C@H](Cc3cccc(C)c3)C2)cc1OC1CCCC1 [HT0712, (3S,5S)-5-(3-cyclopentyloxy-4-methoxy-phenyl)-3-(3-methyl-benzyl)-piperidin-2-one]
effect on CRE-luciferase expression [1]: robust effects | increase of forskolin-induced CRE-luciferase expression above forskolin alone [1]: 1.9 fold | effect on expression of CRE-dependent endogenous gene somatostatin [2]: robust effects | increase in forskolin-induced expression of somatostatin [2]: 4.6 fold | 24 hour memory retention versus vehicle-alone group (CBP^+/− mutant mice; 0.05 mg/kg i.p., p=0.79): did not; also recorded: failed to enhance memory | memory retention, drug-treated CBP+/− mutants versus drug-treated wildtype mice (CBP^+/− mutant mice): did not differ significantly | 24 hour memory retention (Discrimination Index) versus vehicle-injected mutants (CBP^+/− mutant mice): restored 24-hour memory; also recorded: significantly higher | 24 hour memory retention versus vehicle-alone group (CBP^+/− mutant mice; 0.10 mg/kg i.p., p<0.0001): higher | 24 hour memory retention versus vehicle-alone group (CBP^+/− mutant mice; 0.15 mg/kg i.p., p<0.0001): higher | 24 hour memory retention versus vehicle-alone group (CBP^+/− mutant mice; 0.2 mg/kg i.p., p<0.0001): higher | dose at which memory enhancement was first seen (initial effective dose) (CBP^+/− mutant mice; [4]): 0.10 mg/kg | peak effective dose (CBP^+/− mutant mice; [4]): 0.15 mg/kg | 24 hour memory retention versus vehicle alone (wildtype mice; 0.05 mg/kg i.p. 20 min before 3.5 minute training (FIG. 5), p<0.05): significantly increased; also recorded: significantly higher | 24 hour memory retention versus vehicle-alone group (wildtype mice; 0.05 mg/kg i.p., p<0.005): significant enhancement; also recorded: higher | 24 hour memory retention versus vehicle alone (wildtype mice; 0.10 mg/kg i.p. 20 min before 3.5 minute training (FIG. 5), p<0.0001): significantly increased; also recorded: significantly higher | 24 hour memory retention versus vehicle-alone group (wildtype mice; 0.10 mg/kg i.p., p<0.0001): higher | 24 hour memory retention versus vehicle alone (wildtype mice; 0.15 mg/kg i.p. 20 min before 3.5 minute training (FIG. 5), p<0.001): significantly increased; also recorded: significantly higher | 24 hour memory retention versus vehicle-alone group (wildtype mice; 0.15 mg/kg i.p., p<0.005): higher | 24 hour memory retention versus vehicle-alone group (wildtype mice; 0.2 mg/kg i.p., p<0.005): higher | 24 hour memory retention versus vehicle alone (wildtype mice; 0.50 mg/kg i.p., 3.5 minute training (FIG. 5)): failed to produce any memory enhancement | 24 hour memory retention versus vehicle alone (wildtype mice; below 0.05 mg/kg i.p., 3.5 minute training (FIG. 5)): failed to produce any memory enhancement | peak effective dose (wildtype mice; [4]): 0.10 mg/kg | half-life [3]: < 3 h | long-term memory formation after contextual fear conditioning (normal, young adult mice): enhanced

COc1ccc(C2CNC(=O)C2)cc1OC1CCCC1 (stereo not drawn) [rolipram, reference compound]
effect on CRE-luciferase expression [1]: robust effects | increase of forskolin-induced CRE-luciferase expression above forskolin alone [1]: 1.9 fold | effect on expression of CRE-dependent endogenous gene somatostatin [2]: robust effects | increase in forskolin-induced expression of somatostatin [2]: 2.3 fold | memory retention, drug-treated CBP+/− mutants versus drug-treated wildtype mice (CBP^+/− mutant mice): did not differ significantly | 24 hour memory retention (Discrimination Index) versus vehicle-injected mutants (CBP^+/− mutant mice): restored 24-hour memory; also recorded: significantly higher | half-life [3]: < 3 h | long-term memory formation after contextual fear conditioning (normal, young adult mice): enhanced | age-dependent loss of hippocampal-dependent memory and cellular long-term potentiation (aged rats): ameliorates
